Test results published in patent publication US11001564B2, “Substituted chromane-8-carboxamide compounds and analogues thereof, and methods using same” (priority 2016, dated 2021).
Structures can show the parent of a compound that is named as a salt.

system: HBV rcDNA in HepDE19 cells; experiment: HepDE19 assay with bDNA quantitation of HBV rcDNA; format: cell-based, hepatitis B virus (HBV); conditions: Hepatitis B virus, HepDE19, 168 h, HepDE19 cells, 7 day incubation, rcDNA by Quantigene 2.0 bDNA assay; read-out: DE-19 bDNA EC50
Outline: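 HepG2-derived HepDE19 cells, switched to Tet-free medium, were exposed 7 days at 37 °C to compound (8-point ½-log series from 25 μM, 0.5% DMSO). HBV rcDNA measured by bDNA assay with HBV-specific probes; EC50/EC90 by 4-parameter fit. CC50 from CellTiter-Glo ATP on replicate plates after 4 days.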

Row | SMILES | EC50
1 | O=C(N[C@H]1CCOc2c(C(=O)Nc3ccc(F)c(Cl)c3)ccc(F)c21)OCCN1CCCC1=O [Compound 159, 2-(2-Oxopyrrolidin-1-yl)ethyl (S)-(5-fluoro-8-((3-chloro-4-fluorophenyl)carbamoyl)chroman-4-yl)carbamate] | 0.41 µM
2 | O=C(N[C@H]1CCOc2c(C(=O)Nc3ccc(F)c(Cl)c3)ccc(F)c21)OCC(=O)N1CCCC1 [Compound 160, 2-Oxo-2-(pyrrolidin-1-yl)ethyl (S)-(8-((3-chloro-4-fluorophenyl)carbamoyl)-5-fluorochroman-4-yl)carbamate] | 0.42 µM
3 | CC(=O)N1CC(COC(=O)N[C@H]2CCOc3c(C(=O)Nc4ccc(F)c(C)c4)ccc(F)c32)C1 [Compound 161, (1-Acetylazetidin-3-yl)methyl (S)-(5-fluoro-8-((4-fluoro-3-methylphenyl)carbamoyl)chroman-4-yl)carbamate] | 0.85 µM
4 | Cc1cc(NC(=O)c2ccc(F)c3c2OCC[C@@H]3NC(=O)OC[C@@H]2CCC(=O)N2C)ccc1F [Compound 166, ((S)-1-Methyl-5-oxopyrrolidin-2-yl)methyl ((S)-5-fluoro-8-((4-fluoro-3-methylphenyl)carbamoyl)chroman-4-yl)carbamate] | 1.3 µM
5 | Cc1cc(NC(=O)c2ccc(F)c3c2OCC[C@@H]3NC(=O)OCc2cccc(N3CCOCC3)n2)ccc1F [Compound 167, (6-Morpholinopyridin-2-yl)methyl (S)-(5-fluoro-8-((4-fluoro-3-methylphenyl)carbamoyl)chroman-4-yl)carbamate] | 1.8 µM
6 | Cc1cc(NC(=O)c2ccc(F)c3c2OCC[C@@H]3NC(=O)OC[C@H]2CCC(=O)N2C)ccc1F [Compound 168, ((R)-1-Methyl-5-oxopyrrolidin-2-yl)methyl ((S)-5-fluoro-8-((4-fluoro-3-methylphenyl)carbamoyl)chroman-4-yl)carbamate] | 1.6 µM
7 | COC(=O)N[C@H]1CCSc2c(C(=O)Nc3ccc(F)c(F)c3)ccc(F)c21 [Compound 171, Methyl (S)-(8-((3,4-difluorophenyl)carbamoyl)-5-fluorothiochroman-4-yl)carbamate] | 4.1 µM
8 | O=C(N[C@H]1CCSc2c(C(=O)Nc3ccc(F)c(Cl)c3)ccc(F)c21)OCc1ccccn1 [Compound 172] | 2.9 µM
9 | O=C(N[C@@H]1CCSc2c(C(=O)Nc3ccc(F)c(Cl)c3)ccc(F)c21)OCc1ccccn1 [Compound 173] | 8.7 µM
10 | COC(=O)N[C@H]1CCSc2c(C(=O)Nc3ccc(F)c(Cl)c3)ccc(F)c21 [Compound 174, Methyl (S)-(8-((3-chloro-4-fluorophenyl)carbamoyl)-5-fluorothiochroman-4-yl)carbamate] | 1.6 µM
11 | O=C(NC1CCNc2c(C(=O)Nc3ccc(F)c(F)c3)cccc21)OCc1ccccn1 (stereo not drawn) [Compound 175, pyridin-2-ylmethyl (8-((3,4-difluorophenyl)carbamoyl)-1,2,3,4-tetrahydroquinolin-4-yl)carbamate] | 12 µM
12 | COC(=O)NC1CCNc2c(C(=O)Nc3ccc(F)c(Cl)c3)cccc21 (stereo not drawn) [Compound 176, methyl (8-((3-chloro-4-fluorophenyl)carbamoyl)-1,2,3,4-tetrahydroquinolin-4-yl)carbamate] | 23 µM
13 | COC(=O)N[C@H]1CCCc2c(C(=O)Nc3ccc(F)c(F)c3)cccc21 [Compound 184, Methyl (S)-(5-((3,4-difluorophenyl)carbamoyl)-1,2,3,4-tetrahydronaphthalen-1-yl)carbamate] | 8.7 µM

same assay, conditions: Hepatitis B virus, HepDE19, 168 h, read-out: DE-19 bDNA EC50, HepDE19 cells, 7 day incubation, rcDNA by Quantigene 2.0 bDNA assay

Row | SMILES | EC50
14 | CS(=O)(=O)N1CCC(COC(=O)N[C@H]2CCOc3c(C(=O)Nc4ccc(F)c(Cl)c4)ccc(F)c32)CC1 [Compound 162, (1-(Methylsulfonyl)piperidin-4-yl)methyl (S)-(8-((3-chloro-4-fluorophenyl)carbamoyl)-5-fluorochroman-4-yl)carbamate] | 6.1 µM
15 | CN(C)S(=O)(=O)N1CCC(COC(=O)N[C@H]2CCOc3c(C(=O)Nc4ccc(F)c(Cl)c4)ccc(F)c32)CC1 [Compound 163, (1-(N,N-dimethylsulfamoyl)piperidin-4-yl)methyl (S)-(8-((3-chloro-4-fluorophenyl)carbamoyl)-5-fluorochroman-4-yl)carbamate] | 1 µM
16 | O=C(N[C@H]1CCOc2c(C(=O)Nc3ccc(F)c(Cl)c3)ccc(F)c21)OCC1CCN(C(=O)CO)CC1 [Compound 164, (1-(2-Hydroxyacetyl)piperidin-4-yl)methyl (S)-(8-((3-chloro-4-fluorophenyl)carbamoyl)-5-fluorochroman-4-yl)carbamate] | 0.68 µM
17 | CNC(=O)N1CCC(COC(=O)N[C@H]2CCOc3c(C(=O)Nc4ccc(F)c(Cl)c4)ccc(F)c32)CC1 [Compound 165, (1-(Methylcarbamoyl)piperidin-4-yl)methyl (S)-(8-((3-chloro-4-fluorophenyl)carbamoyl)-5-fluorochroman-4-yl)carbamate] | 0.35 µM
18 | O=C(N[C@H]1CCSc2c(C(=O)Nc3ccc(F)c(F)c3)ccc(F)c21)OCc1ccccn1 [Compound 169, Pyridin-2-ylmethyl (S)-(8-((3,4-difluorophenyl)carbamoyl)-5-fluorothiochroman-4-yl)carbamate hydrochloride] | 5.3 µM
19 | O=C(N[C@@H]1CCSc2c(C(=O)Nc3ccc(F)c(F)c3)ccc(F)c21)OCc1ccccn1 [Compound 170, Pyridin-2-ylmethyl (R)-(8-((3,4-difluorophenyl)carbamoyl)-5-fluorothiochroman-4-yl)carbamate hydrochloride] | 21 µM
20 | CNC(=O)N[C@H]1CCCc2c(C(=O)Nc3ccc(F)c(F)c3)cccc21 [Compound 185, (S)—N-(3,4-Difluorophenyl)-5-(3-methylureido)-5,6,7,8-tetrahydronaphthalene-1-carboxamide] | 9.8 µM
21 | O=C(N[C@H]1CCCc2c(C(=O)Nc3ccc(F)c(F)c3)cccc21)OCc1ccccn1 [Compound 186, Pyridin-2-ylmethyl (S)-(5-((3,4-difluorophenyl)carbamoyl)-1,2,3,4-tetrahydronaphthalen-1-yl)carbamate] | 5.6 µM
